Measured values as given in patent US11116752B2, “Pharmaceutical composition comprising bicyclo-substituted pyrazolon azo derivative or salt thereof and preparation method thereof” (Jiangsu Hengrui Medicine Co., Ltd., priority 2016, dated 2021).

Assay: Stability test of Compound B and its mixtures with fillers (1:10)
Assay type: physicochemical
Procedure: The Compound B was mixed respectively with cellulose-lactose (cellactose 80), a simple mixture of cellulose and lactose (75%:25%), spray-dried lactose (Flowlac 100), microcrystalline cellulose PH302, or microcrystalline cellulose PH102 in a ratio of 1:10. The above mixtures and Compound B were placed respectively under conditions of 40° C./RH75%/open, 40° C./RH75%/closed, or 60° C./closed for 2 weeks and 4 weeks.

Appearance (40° C./RH75%/closed, 2 Weeks): Dark red powder
Related substances (%) (40° C./RH75%/closed, 2 Weeks): 1.08%
Appearance (40° C./RH75%/closed, 4 Weeks): Dark red powder
Related substances (%) (40° C./RH75%/closed, 4 Weeks): 1.18%
Appearance (40° C./RH75%/open, 2 Weeks): Dark red mass
Related substances (%) (40° C./RH75%/open, 2 Weeks): 1.32%
Appearance (40° C./RH75%/open, 4 Weeks): Dark red mass
Related substances (%) (40° C./RH75%/open, 4 Weeks): 1.93%
Appearance (60° C./closed, 2 Weeks): Dark red mass
Related substances (%) (60° C./closed, 2 Weeks): 3.05%
Appearance (60° C./closed, 4 Weeks): Dark red mass
Related substances (%) (60° C./closed, 4 Weeks): 4.84%
Appearance (Initial point, 0 Day): Dark red powder
Related substances (%) (Initial point, 0 Day): 0.90%
Structure (SMILES): CC1=NN(c2ccc3c(c2)CCCC3)C(=O)/C1=N\Nc1cccc(-c2ccc(C(=O)O)o2)c1O [Compound B, (Z)-5-(2-hydroxy-3-(2-(3-methyl-5-oxo-1-(5,6,7,8-tetrahydronaphthalen-2-yl)-1H-pyrazol-4(5H)-ylidene)hydrazino)phenyl)furan-2-carboxylic acid]
